Measured values: article PMC12322948 (The Journal of Organic Chemistry, 2025)
Read-outs that look alike come from different tables or passages of the source.

Molecular target: T1, ACE2 (Homo sapiens, UniProt Q9BYF1)
T1 construct: purchased Abcam/BioVision ab273373
Experiment: ACE2 inhibition assay (Abcam ACE2 Inhibitor Screening Kit, fluorogenic MCA peptide substrate)
Format: biochemical
Details: for pIC50 exp-MLN – pIC50 exp: difference between experimental pIC50 of MLN-4760 and of the compound
Description: Having validated our radiosynthetic approach to (S,S)-[^18F]1 and with various fluorinated MLN-4760 analogues in hand, we next looked to evaluate the inhibitory activity of the analogues using a commercially available ACE2 inhibition assay kit (Table ) (Figure ). […] Consequently, the pIC50 values of the tested compounds were evaluated relative to our experimentally measured value for MLN-4760 in order to identify lead candidates for radiolabeling. […] The difference between the in vitro pIC^exp 50 for MLN-4760 and the pIC^exp 50 values of (S,S)-1–(S,S)-4 aligned with the difference in the in silico predicted pIC50 (pIC^pr 50) of MLN-4760 and pIC^pr 50 values of (S,S)-1–(S,S)-4. Specifically, these pIC50 differences for all 3,5-disubstituted benzyl analogues (S,S)-2, (S,S)-3, and (S,S)-4 were smaller than for the para-substituted benzyl analogue (S,S)-1, providing support for the pIC^pr 50 values (Table ). Consequently, compounds (S,S)-2, (S,S)-3 and (S,S)-4, with pIC50 values in the same range as MLN-4760, emerge as priority targets for future ACE2 PET radioligand development.
The assay for the inhibition of ACE2 was conducted using a commercially available ACE2 Inhibitor Screening Kit, purchased from Abcam (ACE2 Inhibitor Screening Kit, ab273373; Abcam/BioVision), in 96-well microplates (half area, black, flat bottomed, Greiner Bio-One International) at ambient temperature (set to 23.5 °C), total volume 100 µL. The assay employs a synthetic MCA-based peptide substrate that, upon cleavage by active ACE2, releases a fluorophore measurable by a fluorescence microplate reader (Ex/Em = 320/420 nm). Compounds to be tested were serially diluted with dilution buffer from a stock solution (5 mg/mL) in dimethyl sulfoxide (DMSO) to different concentrations.
Diluted ACE2 enzyme solution was prepared by diluting ACE2 enzyme (20 µL, provided in the kit) with dilution buffer (198 µL, provided in the kit ) and was aliquoted and stored at -20 °C.
Diluted ACE2 enzyme solution (2 µL) was added to assay buffer (48 µL ) to make ACE2 enzyme working solution. Inhibitor solution was prepared by adding the cont rol inhibitors (5 µL, 0.5 mM) to dilution buffer (50 µL) and was aliquoted and stored at -20 °C. The ACE2 substrate was aliquoted and stored at -20 °C. ACE2 substrate solution was prepared by diluting substrate (2 µL) […]
Five controls were prepared: enzyme control (positive control, inhibition free reaction), inhibitor control (negative control to test inhibition), background control (to remove fluorescence from the background), test compound control (to test whether the test compounds react with the substrate) and vehicle control (to test the effect of solvent DMSO on ACE2 enzyme activity).
For enzyme control, inhibitor control and vehicle control, and test compounds, ACE2 enzyme working solution (50 µL) was added. For background control and test compound control, assay buffer (50 µL) was added. Then, assay buffer (10 µL) was added to enzyme control and background control. DMSO solution in assay buffer (10 µL) was added to vehicle control. Inhibitor solution (10 µL) was added to inhibitor control. Test compound solution (10 µL) was added to the test compound control. For the test compound, compound solution (10 µL) with the different concentrations were added. An example of preparation can be found on Table S3.1. The mixture […]
and substrate were incubated separately at room temperature for 15 minutes before substrate (40 µL) was added to each test and mixed evenly to start the reaction. Fluorescence was monitored over 61-minutes (excitation = 320 nm, emission = 420 nm) using a Tecan microplate reader (Infinite® 200 PRO NanoQuant Microplate Reader). Fluorescence spectra were measured using the fluorescence intensity mode (excitation = 320 nm).
Table S4.1. Preparation of control and test compounds
Test Component 1 Component 2 Component 3
Vehicle control 50 µL enzyme1 10 µL DMSO (0.1 mM) 40 µL substrate2
Background control 50 µL assay buffer 10 µL assay buffer 40 µL substrate […]

[1] = Abcam ACE2 inhibitor screening kit, read-out: pIC50 exp (experimental pIC50) (converted)

T1 sequence (Q9BYF1 18-805): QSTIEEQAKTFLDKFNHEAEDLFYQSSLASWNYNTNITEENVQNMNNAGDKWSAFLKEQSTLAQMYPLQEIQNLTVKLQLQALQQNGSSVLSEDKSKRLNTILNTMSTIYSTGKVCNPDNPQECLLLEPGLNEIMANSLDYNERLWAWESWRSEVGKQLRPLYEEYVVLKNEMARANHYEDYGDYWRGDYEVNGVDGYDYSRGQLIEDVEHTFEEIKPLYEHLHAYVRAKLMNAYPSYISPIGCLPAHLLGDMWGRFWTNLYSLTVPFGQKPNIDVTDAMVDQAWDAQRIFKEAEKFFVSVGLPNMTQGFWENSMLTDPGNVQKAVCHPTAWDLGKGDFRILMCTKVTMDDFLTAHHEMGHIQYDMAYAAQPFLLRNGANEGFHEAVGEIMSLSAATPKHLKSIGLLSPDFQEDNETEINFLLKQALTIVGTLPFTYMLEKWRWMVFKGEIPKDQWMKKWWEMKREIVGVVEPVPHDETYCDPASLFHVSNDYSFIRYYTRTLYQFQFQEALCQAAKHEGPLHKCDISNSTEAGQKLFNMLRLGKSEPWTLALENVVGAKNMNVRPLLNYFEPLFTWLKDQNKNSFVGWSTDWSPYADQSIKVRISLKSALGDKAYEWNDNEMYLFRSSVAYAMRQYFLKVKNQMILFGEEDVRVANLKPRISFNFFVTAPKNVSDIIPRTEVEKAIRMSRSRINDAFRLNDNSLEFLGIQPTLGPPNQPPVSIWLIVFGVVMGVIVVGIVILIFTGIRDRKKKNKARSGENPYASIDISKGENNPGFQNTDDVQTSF

SMILES: COc1cc(Cn2cncc2C[C@H](N[C@@H](CC(C)C)C(=O)O)C(=O)O)cc(OCCF)c1 [(S,S)-4]
- IC50: 53.7 nM
- pIC50 exp-MLN – pIC50 exp: 0.27

SMILES: CC(C)C[C@H](N[C@@H](Cc1cncn1Cc1cc(F)cc(Cl)c1)C(=O)O)C(=O)O [(S,S)-3]
- IC50: 24.5 nM
- pIC50 exp-MLN – pIC50 exp: –0.07

SMILES: CC(C)C[C@H](N[C@@H](Cc1cncn1Cc1ccc(F)cc1)C(=O)O)C(=O)O [(S,S)-1]
- IC50 [1]: 204 nM
- pIC50 exp-MLN – pIC50 exp: 0.85

SMILES: CC(C)C[C@H](N[C@@H](Cc1cncn1Cc1cc(Cl)cc(Cl)c1)C(=O)O)C(=O)O [MLN-4760, (S,S)-2-(1-carboxy-2-(3-(3,5-dichlorobenzyl)-3H-imidazol-4-yl)-ethylamino)-4-methylpentanoic acid, reference compound]
- IC50: 28.8 nM
- pIC50 exp-MLN – pIC50 exp: 0.00

SMILES: Cc1cc(F)cc(Cn2cncc2C[C@H](N[C@@H](CC(C)C)C(=O)O)C(=O)O)c1 [(S,S)-2]
- IC50: 66.1 nM
- pIC50 exp-MLN – pIC50 exp: 0.36

SMILES: CC(C)C[C@@H](N[C@@H](Cc1cncn1Cc1ccc(F)cc1)C(=O)O)C(=O)O [(S,R)-1]
- IC50 [1]: 40700 nM
- pIC50 exp-MLN – pIC50 exp: 3.15
